Target: T1, bovine serum albumin (BSA) (Bos taurus, UniProt P02769)
T1 construct: gene ALB; mature secreted protein
Assay: tryptophan fluorescence quenching, excitation […] nm
Type: binding
Details: double-log, natural logarithm of K, PBS, 300 K

T1 sequence (P02769 25-607): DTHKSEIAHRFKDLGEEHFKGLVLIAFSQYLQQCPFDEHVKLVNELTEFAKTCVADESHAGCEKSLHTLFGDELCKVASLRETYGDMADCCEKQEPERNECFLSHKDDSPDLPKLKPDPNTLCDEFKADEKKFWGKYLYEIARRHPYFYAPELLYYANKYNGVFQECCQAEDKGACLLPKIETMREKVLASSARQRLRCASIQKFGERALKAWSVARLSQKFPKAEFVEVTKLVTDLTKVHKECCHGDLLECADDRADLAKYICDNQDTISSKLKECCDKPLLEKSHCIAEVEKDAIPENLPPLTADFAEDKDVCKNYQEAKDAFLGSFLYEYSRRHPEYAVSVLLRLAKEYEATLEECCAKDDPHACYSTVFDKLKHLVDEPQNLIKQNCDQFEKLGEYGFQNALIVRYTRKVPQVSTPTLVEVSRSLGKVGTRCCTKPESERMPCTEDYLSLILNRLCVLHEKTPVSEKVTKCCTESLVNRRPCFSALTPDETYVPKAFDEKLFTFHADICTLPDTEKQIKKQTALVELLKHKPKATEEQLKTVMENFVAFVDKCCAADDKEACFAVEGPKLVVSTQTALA

| SMILES | lnK (covalent (suspected by the authors from new 480 nm peak), unreliable) | lnK |
| --- | --- | --- |
| COC(=O)c1cc2cc(OC)ccc2oc1=O [6-OMe] | 12.62 ln (M^-1 not printed) |  |
| COC(=O)c1cc2cc([N+](=O)[O-])ccc2oc1=O [6-NO2] |  | 9.03 ln (M^-1 not printed) |
| COC(=O)c1cc2cc(Br)ccc2oc1=O [6-Br] |  | 9.78 ln (M^-1 not printed) |

From PMC10380446, “The Electronic Effects of 3-Methoxycarbonylcoumarin Substituents on Spectral, Antioxidant, and Protein Binding Properties” (International Journal of Molecular Sciences, 2023)
